{
  "source": "patent US4218436A",
  "about": "“Compounds and methods” (The Upjohn Company, priority 1979, dated 1980)",
  "key": {"[1]": {"system": "antiserum raised against 9-deoxy-9-methylene PGF2 (KLH Conjugate)", "assay": "RIA cross-reactivity, displacement of [^3 H] PGE2 from antiserum (KLH Conjugate)", "assay_type": "binding, rabbit", "conditions": "relative to PGE2; ng. required to displace 50% of [^3 H] PGE2", "protocol": "(§1) Five milligrams of KLH-PGE2 mimic conjugate is added to 2.25 ml. of sterile saline (0.9%) and 2.25 ml. of Freund's complete adjuvant and blended. 1.0 ml. of this mixture is injected subcutaneously at 20-30 sites on the flanks of four Albino New Zealand rabbits of 2-4 kg. mass. Each rabbit receives a dose of about 1 mg. On the same day, 1.0 ml. of attenuated pertussis vaccine is injected intramuscularly at four sites on the hindquarters of each rabbit.\n(§2) A known amount of PGE-type compound in 0.1 ml. PBSG buffer at pH 7.4±0.2 and 0.1 ml. of the radiolabeled form of the same PGE-type compound (10,000 cpm/0.1 ml. PBSG) are introduced into a 12×75 mm. polypropylene tube. Antiserum (0.1 ml.) against the corresponding mimic is added at a dilution which will bind 50%±3% of the radiolabeled authentic PGE-type compound in the absence of competition from the unlabeled PGE-type compound. The tube is incubated for 1 hour at 25° and then 12-16 hours at 4°. Antibody bound and free fractions are separated with dextran-coated charcoal. Other separation techniques are acceptable.\n(§3) The data below show the cross-reactivity of antiserum raised against 9-deoxy-9-methylene PGF2 to various PGE-type compounds, relative to PGE2. Percent crossreaction is defined as (ng. of PGE2 required to displace 50% of [^3 H] PGE2)/(ng. heterologous PG required to displace 50% of [^3 H] PGE2)×100."}, "[2]": {"system": "antiserum raised against 9-deoxy-9-methylene PGF2 (BSA Conjugate)", "assay": "RIA cross-reactivity, displacement of [^3 H] PGE2 from antiserum (BSA Conjugate)", "assay_type": "binding, rabbit", "conditions": "relative to PGE2; ng. required to displace 50% of [^3 H] PGE2", "protocol": "as §1, §2, §3"}},
  "data": [
    {"smiles": "CCCCC[C@H](O)/C=C/[C@@H]1[C@@H](CCCCCCC(=O)O)[C@@H](O)C[C@H]1O", "note": "[PGF1 α]", "values": [
      {"measurement": "% Cross-Reaction KLH Conjugate", "setting": "[1]", "result": 0.09, "unit": "%"},
      {"measurement": "% Cross-Reaction BSA Conjugate", "setting": "[2]", "result": 2.9, "unit": "%"}
    ]}
  ]
}
